Consider 30 compounds from article PMC7917164 (Bioorganic & medicinal chemistry, 2020).

Structures can show the parent of a compound that is named as a salt.

In one assay the test system is Aβ42 levels (γ-secretase modulation) in SHSY5Y-APP cells. Kind of assay: Cell-based ELISA assay for measuring extracellular Aβ42 levels. Further details: species or system human.
Conditions: not given
For orientation: An ELISA detects its analyte on a solid surface through an enzyme-linked reagent.
In the case of `COc1nc(-c2csc(Nc3c4c(nn3C3CCOC3)CCCC4)n2)ccc1-n1cnc(C)c1` (racemic) [Compound 40, (+/−)-4-(6-methoxy-5-(4-methyl-1H-imidazol-1-yl)pyridin-2-yl)-N-(2-(tetrahydrofuran-3-yl)-4,5,6,7-tetrahydro-2H-indazol-3-yl)thiazol-2-amine], the “Parent Aβ42 IC50” value is 289 nM.

With `CCn1nc2c(c1Nc1nc(-c3ccc(-n4cnc(C)c4)c(OC)n3)cs1)C(C)CC2(C)C` (racemic) [Compound 72, (+/−)-N-(2-ethyl-4,6,6-trimethyl-2,4,5,6-tetrahydrocyclopenta[c]pyrazol-3-yl)-4-(6-methoxy-5-(4-methyl-1H-imidazol-1-yl)pyridin-2-yl)thiazol-2-amine], the “Parent Aβ42 IC50” value is reported as 49 nM.

Regarding `CCCn1nc2c(c1Nc1nc(-c3ccc(-n4cnc(C)c4)c(OC)n3)cs1)CCCC2` [Compound 34, 4-(6-methoxy-5-(4-methyl-1H-imidazol-1-yl)pyridin-2-yl)-N-(2-propyl-4,5,6,7-tetrahydro-2H-indazol-3-yl)thiazol-2-amine], the “Parent Aβ42 IC50” value is on record as 148 nM.

Take `COc1nc(-c2csc(Nc3c4c(nn3C(C)C)CCCC4)n2)ccc1-n1cnc(C)c1` [Compound 35, N-(2-isopropyl-4,5,6,7-tetrahydro-2H-indazol-3-yl)-4-(6-methoxy-5-(4-methyl-1H-imidazol-1-yl)pyridin-2-yl)thiazol-2-amine]: the “Parent Aβ42 IC50” value was 195 nM.

For the compound `COc1nc(-c2csc(Nc3c4c(nn3C(C)(C)C)CCCC4)n2)ccc1-n1cnc(C)c1` [Compound 36, N-(2-(tert-butyl)-4,5,6,7-tetrahydro-2H-indazol-3-yl)-4-(6-methoxy-5-(4-methyl-1H-imidazol-1-yl)pyridin-2-yl)thiazol-2-amine], the “Parent Aβ42 IC50” value was found to be 216 nM.

Take `COc1nc(-c2csc(Nc3c4c(nn3C3CCC3)CCCC4)n2)ccc1-n1cnc(C)c1` [Compound 37, N-(2-cyclobutyl-4,5,6,7-tetrahydro-2H-indazol-3-yl)-4-(6-methoxy-5-(4-methyl-1H-imidazol-1-yl)pyridin-2-yl)thiazol-2-amine]: the “Parent Aβ42 IC50” value stood at 99 nM.

Consider `COc1nc(-c2csc(Nc3c4c(nn3C3CCCC3)CCCC4)n2)ccc1-n1cnc(C)c1` [Compound 38, N-(2-cyclopentyl-4,5,6,7-tetrahydro-2H-indazol-3-yl)-4-(6-methoxy-5-(4-methyl-1H-imidazol-1-yl)pyridin-2-yl)thiazol-2-amine], for which the “Parent Aβ42 IC50” value is 225 nM.

Consider `COc1nc(-c2csc(Nc3c4c(nn3C3CCCCC3)CCCC4)n2)ccc1-n1cnc(C)c1` [Compound 39, N-(2-cyclohexyl-4,5,6,7-tetrahydro-2H-indazol-3-yl)-4-(6-methoxy-5-(4-methyl-1H-imidazol-1-yl)pyridin-2-yl)thiazol-2-amine], for which the “Parent Aβ42 IC50” value was found to be 280 nM.

Turning to `COc1nc(-c2csc(Nc3c4c(nn3C3CCOCC3)CCCC4)n2)ccc1-n1cnc(C)c1` [Compound 41, 4-(6-methoxy-5-(4-methyl-1H-imidazol-1-yl)pyridin-2-yl)-N-(2-(tetrahydro-2H-pyran-4-yl)-4,5,6,7-tetrahydro-2H-indazol-3-yl)thiazol-2-amine], the “Parent Aβ42 IC50” value worked out at 766 nM.

With `COc1nc(-c2csc(Nc3c4c(nn3C3CCN(C)CC3)CCCC4)n2)ccc1-n1cnc(C)c1` [Compound 42, 4-(6-methoxy-5-(4-methyl-1H-imidazol-1-yl)pyridin-2-yl)-N-(2-(1-methylpiperidin-4-yl)-4,5,6,7-tetrahydro-2H-indazol-3-yl)thiazol-2-amine], the “Parent Aβ42 IC50” value is greater than 1000 nM.

`COc1nc(-c2csc(Nc3c4c(nn3CCN3CCCCC3)CCCC4)n2)ccc1-n1cnc(C)c1` [Compound 43, 4-(6-methoxy-5-(4-methyl-1H-imidazol-1-yl)pyridin-2-yl)-N-(2-(2-(piperidin-1-yl)ethyl)-4,5,6,7-tetrahydro-2H-indazol-3-yl)thiazol-2-amine]: the “Parent Aβ42 IC50” value came to 475 nM.

In the case of `COc1nc(-c2csc(Nc3c4c(nn3CCN3CCOCC3)CCCC4)n2)ccc1-n1cnc(C)c1` [Compound 44, 4-(6-methoxy-5-(4-methyl-1H-imidazol-1-yl)pyridin-2-yl)-N-(2-(2-morpholinoethyl)-4,5,6,7-tetrahydro-2H-indazol-3-yl)thiazol-2-amine trihydrochloride], the “Parent Aβ42 IC50” value is greater than 1000 nM.

As to `COc1nc(-c2csc(Nc3c4c(nn3CCCN3CCOCC3)CCCC4)n2)ccc1-n1cnc(C)c1` [Compound 45, 4-(6-methoxy-5-(4-methyl-1H-imidazol-1-yl)pyridin-2-yl)-N-(2-(3-morpholinopropyl)-4,5,6,7-tetrahydro-2H-indazol-3-yl)thiazol-2-amine], the “Parent Aβ42 IC50” value is on record as 270 nM.

For `COc1nc(-c2csc(Nc3c4c(nn3CC(F)(F)F)CCCC4)n2)ccc1-n1cnc(C)c1` [Compound 47, 4-(6-methoxy-5-(4-methyl-1H-imidazol-1-yl)pyridin-2-yl)-N-(2-(2,2,2-trifluoroethyl)-4,5,6,7-tetrahydro-2H-indazol-3-yl)thiazol-2-amine], the “Parent Aβ42 IC50” value is recorded as 179 nM.

Take `COCCn1nc2c(c1Nc1nc(-c3ccc(-n4cnc(C)c4)c(OC)n3)cs1)CCCC2` [Compound 48, 4-(6-methoxy-5-(4-methyl-1H-imidazol-1-yl)pyridin-2-yl)-N-(2-(2-methoxyethyl)-4,5,6,7-tetrahydro-2H-indazol-3-yl)thiazol-2-amine]: the “Parent Aβ42 IC50” value is given as 272 nM.

Take `COc1nc(-c2csc(Nc3c4c(nn3CCO)CCCC4)n2)ccc1-n1cnc(C)c1` [Compound 49, 2-(3-((4-(6-methoxy-5-(4-methyl-1H-imidazol-1-yl)pyridin-2-yl)thiazol-2-yl)amino)-4,5,6,7-tetrahydro-2H-indazol-2-yl)ethanol]: the “Parent Aβ42 IC50” value worked out at 362 nM.

In the case of `COc1nc(-c2csc(Nc3c4c(nn3CCCO)CCCC4)n2)ccc1-n1cnc(C)c1` [Compound 50, 3-(3-((4-(6-methoxy-5-(4-methyl-1H-imidazol-1-yl)pyridin-2-yl)thiazol-2-yl)amino)-4,5,6,7-tetrahydro-2H-indazol-2-yl)propan-1-ol], the “Parent Aβ42 IC50” value stood at 229 nM.

`COc1nc(-c2csc(Nc3c4c(nn3CC(C)(C)O)CCCC4)n2)ccc1-n1cnc(C)c1` [Compound 51, 1-(3-((4-(6-methoxy-5-(4-methyl-1H-imidazol-1-yl)pyridin-2-yl)thiazol-2-yl)amino)-4,5,6,7-tetrahydro-2H-indazol-2-yl)-2-methylpropan-2-ol]: the “Parent Aβ42 IC50” value is given as 55 nM.

For the compound `CCn1nc2c(c1N(C)c1nc(-c3ccc(-n4cnc(C)c4)c(OC)n3)cs1)CCCC2` [Compound 52, N-(2-ethyl-4,5,6,7-tetrahydro-2H-indazol-3-yl)-4-(6-methoxy-5-(4-methyl-1H-imidazol-1-yl)pyridin-2-yl)-N-methylthiazol-2-amine], the “Parent Aβ42 IC50” value is greater than 1000 nM.

As to `CCCn1nc(C(C)(C)C)cc1Nc1nc(-c2ccc(-n3cnc(C)c3)c(OC)n2)cs1` [Compound 53, N-(3-(tert-butyl)-1-propyl-1H-pyrazol-5-yl)-4-(6-methoxy-5-(4-methyl-1H-imidazol-1-yl)pyridin-2-yl)thiazol-2-amine dihydrochloride], the “Parent Aβ42 IC50” value is reported as 86 nM.

For the compound `COc1nc(-c2csc(Nc3cc(C(C)(C)C)nn3C(C)C)n2)ccc1-n1cnc(C)c1` [Compound 54, N-(3-(tert-butyl)-1-isopropyl-1H-pyrazol-5-yl)-4-(6-methoxy-5-(4-methyl-1H-imidazol-1-yl)pyridine-2-yl)thiazol-2-amine], the “Parent Aβ42 IC50” value worked out at 87 nM.

Regarding `COc1nc(-c2csc(Nc3cc(C(C)(C)C)nn3C(C)(C)C)n2)ccc1-n1cnc(C)c1` [Compound 55, N-(1,3-di-tert-butyl-1H-pyrazol-5-yl)-4-(6-methoxy-5-(4-methyl-1H-imidazol-1-yl)pyridin-2-yl)thiazol-2-amine], the “Parent Aβ42 IC50” value was 85 nM.

With `COc1nc(-c2csc(Nc3cc(C(C)(C)C)nn3CC(F)(F)F)n2)ccc1-n1cnc(C)c1` [Compound 57, N-(3-(tert-butyl)-1-(2,2,2-trifluoroethyl)-1H-pyrazol-5-yl)-4-(6-methoxy-5-(4-methyl-1H-imidazol-1-yl)pyridin-2-yl)thiazol-2-amine], the “Parent Aβ42 IC50” value was 87 nM.

`CCn1nc(C(C)C)cc1Nc1nc(-c2ccc(-n3cnc(C)c3)c(OC)n2)cs1` [Compound 58, N-(1-ethyl-3-isopropyl-1H-pyrazol-5-yl)-4-(6-methoxy-5-(4-methyl-1H-imidazol-1-yl)pyridin-2-yl)thiazol-2-amine]: the “Parent Aβ42 IC50” value stood at 394 nM.

Regarding `COc1nc(-c2csc(Nc3cc(C(F)(F)F)nn3C(C)(C)C)n2)ccc1-n1cnc(C)c1` [Compound 61, N-(1-(tert-butyl)-3-(trifluoromethyl)-1H-pyrazol-5-yl)-4-(6-methoxy-5-(4-methyl-1H-imidazol-1-yl)pyridin-2-yl)thiazol-2-amine], the “Parent Aβ42 IC50” value came out at 121 nM.

In the case of `COc1nc(-c2csc(Nc3cc(C(F)(F)F)nn3CC(F)(F)F)n2)ccc1-n1cnc(C)c1` [Compound 62, 4-(6-methoxy-5-(4-methyl-1H-imidazol-1-yl)pyridin-2-yl)-N-(1-(2,2,2-trifluoroethyl)-3-(trifluoromethyl)-1H-pyrazol-5-yl)thiazol-2-amine], the “Parent Aβ42 IC50” value is reported as 771 nM.

On to `COc1nc(-c2csc(Nc3c4c(nn3C(C)C)CCC4)n2)ccc1-n1cnc(C)c1` [Compound 65, N-(2-isopropyl-2,4,5,6-tetrahydrocyclopenta[c]pyrazol-3-yl)-4-(6-methoxy-5-(4-methyl-1H-imidazol-1-yl)pyridin-2-yl)thiazol-2-amine], for which the “Parent Aβ42 IC50” value came to 66 nM.

Staying with this assay, now noted: ratio of Aβ42 IC50 values.
As for `CCn1nc2c(c1Nc1nc(-c3ccc(-n4cnc(C)c4)cc3)cs1)CCCC2` [Compound 22a], the “Loss in activity (Aβ42) versus the parent fluorophenyl compound” value is listed as “greater than 4 fold”.

As to `Cc1cn(-c2ccc(-c3csc(Nc4c5c(nn4C)CCCC5)n3)cc2)cn1` [Compound 31a], the “Loss in activity (Aβ42) versus the parent fluorophenyl compound” value is “greater than 2 fold”.

As to `CCn1nc(C(C)(C)C)cc1Nc1nc(-c2ccc(-n3cnc(C)c3)cc2)cs1` [Compound 33a], the “Loss in activity (Aβ42) versus the parent fluorophenyl compound” value is given as “greater than 2 fold”.
